Measured values: article PMC12478587

Legend:
[1] = tested on: FTC_1_Full (DNA, aptamer) GGAGGCTCTCGGGACGACGCTGAGTCGTTGGCAAGGTATTGAGAGAGTGTCGTCCCGATGCTGCAATCGTAA; experiment: ITC; settings: Na+ (PBS), Mg2+ 2 mM, 25 °C, 20 µM aptamer in cell; for binding: 200 µM compound in syringe
[2] = tested on: FTC_1_EAB (FTC_1_5'trunc19_3'trunc25), unlabelled (DNA, aptamer) CTGAGTCGTTGGCAAGGTATTGAGAGAG; experiment: ITC; settings: Na+ (PBS), Mg2+ 2 mM, 25 °C, 20 µM aptamer in cell; for binding: 200 µM compound in syringe
[3] = tested on: FTC_1_EAB, E-AB sensor (DNA, aptamer) CTGAGTCGTTGGCAAGGTATTGAGAGAG; experiment: electrochemical aptamer-based sensor (square wave voltammetry); settings: for binding: negligible signal 100 nM to 10 µM
[4] = tested on: FTC_5_Full (DNA, aptamer) GGAGGCTCTCGGGACGACGGCAAGTCGTTGGTAAGGTATTAATCTGGTGTCGTCCCGATGCTGCAATCGTAA; experiment: ITC; settings: Na+ (PBS), Mg2+ 2 mM, 25 °C, 20 µM aptamer in cell, 200 µM FTC in syringe
[5] = tested on: FTC_1_Fluor (FTC_1_5'trunc3_3'trunc14) (DNA, aptamer) GGCTCTCGGGACGACGCTGAGTCGTTGGCAAGGTATTGAGAGAGTGTCGTCCCGA; experiment: fluorescence, quencher strand displacement; settings: Na+ (PBS), Mg2+ about 1 mM; 50% human plasma; Q-Cap_1 (3'-BHQ2) displaced; 100 nM aptamer, 150 nM Q-Cap_1; apparent
[6] = tested on: FTC_1_EAB_Scramble (DNA, other) GATATGGGAGAACGCATTGCGTGGTATG; experiment: not stated (ITC series, Figure S7)
[7] = tested on: FTC_2_Full (DNA, aptamer) GGAGGCTCTCGGGACGACCATGAGTCGTTGGTAAGGTATTAGGAAGCGGTCGTCCCGATGCTGCAATCGTAA; experiment: ITC; settings: Na+ (PBS), Mg2+ 2 mM, 25 °C, 20 µM aptamer in cell, 200 µM FTC in syringe
[8] = target: bovine serum albumin (BSA) (UniProt P02769 25-607); experiment: ITC; heat change at mole ratios <0.1; BSA as ligand; ITC: PBS + 2 mM MgCl2 (SELEX buffer pH 7.2); general ITC protocol 20 uM aptamer in cell, 200 uM target in syringe; temperature not given; settings: protein: commercial; stem-loop, stem S1 13 bp
Chain of bovine serum albumin (BSA) (P02769 25-607): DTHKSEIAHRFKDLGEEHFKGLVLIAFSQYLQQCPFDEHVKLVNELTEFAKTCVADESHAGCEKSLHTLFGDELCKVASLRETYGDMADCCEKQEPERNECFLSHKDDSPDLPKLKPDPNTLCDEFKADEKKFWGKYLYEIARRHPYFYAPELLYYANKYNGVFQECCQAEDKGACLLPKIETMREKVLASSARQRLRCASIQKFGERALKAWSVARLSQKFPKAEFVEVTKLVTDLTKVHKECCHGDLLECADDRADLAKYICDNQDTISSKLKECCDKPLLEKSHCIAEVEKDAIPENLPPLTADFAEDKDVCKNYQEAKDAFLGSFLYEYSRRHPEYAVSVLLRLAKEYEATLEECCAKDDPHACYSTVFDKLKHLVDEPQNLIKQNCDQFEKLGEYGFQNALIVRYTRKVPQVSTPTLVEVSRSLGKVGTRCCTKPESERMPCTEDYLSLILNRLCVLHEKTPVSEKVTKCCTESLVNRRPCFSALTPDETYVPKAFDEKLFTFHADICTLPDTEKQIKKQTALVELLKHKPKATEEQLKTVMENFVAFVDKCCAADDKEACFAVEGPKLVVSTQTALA

Question: Which binding [1] does the source give for `Nc1cc[nH]c(=O)n1` here?
Answer: no

Question: And the binding [2]?
Answer: no

Question: For `Nc1ccn([C@@H]2CS[C@H](CO)O2)c(=O)n1`, which binding ([3]; binding above 10 µM, gain 50% lower than FTC) is on record?
Answer: weak

Question: For `Nc1ccn([C@@H]2O[C@H](CO)[C@@H](O)[C@H]2O)c(=O)n1`, which binding [1] is on record?
Answer: no

Question: What about the binding [2] of the same molecule?
Answer: no

Question: How did the binding [4] turn out when `Nc1nc(=O)n([C@@H]2CS[C@H](CO)O2)cc1F` was run?
Answer: yes

Question: What about the EC50 [5] of the same molecule?
Answer: 3.536 ± 0.069 µM

Question: And the binding [6]?
Answer: no

Question: And the binding [7]?
Answer: yes

Question: And the EC50 ([3]; Na+ (PBS), phosphate-buffered saline, gold electrode, Hill coefficient 1, apparent)?
Answer: 10.4 ± 0.6 µM

Question: And the dissociation constant ([1]; 200 µM FTC in syringe)?
Answer: 150 ± 40 nM

Question: And the Kd ([2]; 200 µM FTC in syringe)?
Answer: 10.9 ± 0.3 µM

Question: Which results are given for `Nc1nc(=O)n([C@@H]2CS[C@H](COP(=O)(O)OP(=O)(O)OP(=O)(O)O)O2)cc1F`?
Answer: binding ([3]; minimal binding at saturation): weak; binding [1]: no

Question: How did the binding [1] turn out when `Nc1nc(=O)n([C@@H]2O[C@H](CO)[C@@H](O)[C@H]2O)cc1F` was run?
Answer: no

Question: And the binding [2]?
Answer: no

B1: FTC_1 (taken as FTC_1_Full) (structured_DNA)
DNA: GGAGGCTCTCGGGACGACGCTGAGTCGTTGGCAAGGTATTGAGAGAGTGTCGTCCCGATGCTGCAATCGTAA
Question: Does B1 bind [8]?
Answer: binds
